Data taken from patent US20140274969A1 (priority 2013, published 2014).
Read-outs that look alike come from different tables or passages of the source.

Experiments:
[1] = test system: acute traumatic SCI; assay: ASIA motor recovery after acute traumatic SCI (randomized placebo-controlled trial); assay type: in vivo, human
Protocol: The research protocol disclosed herein was approved by the University of Calgary Conjoint Health Research Ethics Board. Between June 2004 and August 2008, all subjects presenting with motor deficit secondary to acute traumatic SCI to the Spine Service at the Foothills Medical Centre in Calgary, Calgary, Alberta, Canada, were immediately identified to the principal investigators and were assessed and screened for this trial (Clinical Trials Gov. Identifier No. NCT00559494). Those within 12 h of injury who met other inclusion criteria (Table 1) were offered enrolment. […] For this purpose, sets of 10 random numbers balanced for odd and even integers were computer generated. Sequentially numbered and sealed packaged kits containing minocycline or placebo were constructed from the randomization codes for each stratified group by an independent individual not otherwise involved in the trial. Patients were administered the next available treatment kit for their appropriate treatment group. With the exception of the bedside nurse responsible for study drug administration, all subjects and research personnel were blinded to treatment until the end of the study (FIG. 1). […] Clin. Exp. Pharmacol. Physiol. 1:299-308). […] Neurological function was assessed at intervals using the American Spinal Cord Injury Association (ASIA) standardized neurological examination and included the motor composites and sensory composites. These examinations were performed by a physical medicine and rehabilitation specialist at Day 1 (time of enrolment), Day 4, Day 5, Day 7, Week 3, Week 6, Week 12, Month 6, and Month 12 (Table 3). Day 1 scores were subtracted from each subsequent score to calculate improvement from baseline for graphing purposes. […] ASIA sensory scores were similarly evaluated. […] Functional recovery data were compared over all data points. […] All statistical tests were two-tailed (a=0.05).

[2] = cited from earlier work
[3] = cited from earlier work; remark: listed apart in the source
[4] = test system: MMP activity; conditions: cited from earlier work
[5] = test system: mixed neuronal and glial spinal cord cultures; conditions: 20 nM, 30 minutes before 24-hour excitotoxin exposure; cited from earlier work
[6] = test system: SCI; conditions: mice; two 50 mg/kg i.p. doses then three 25 mg/kg doses at 24 h intervals; cited from earlier work
[7] = test system: SCI; conditions: rats; 90 mg/kg immediately after SCI then 45 mg/kg every 12 h; cited from earlier work
[8] = test system: SCI; conditions: rats; three 30 mg/kg i.p. doses at 30 min, 60 min, 24 h after SCI; 28-day observation; cited from earlier work
[9] = test system: SCI; conditions: rats; i.p. every 12 h for 3 days, 90 mg/kg then 30 mg/kg; cited from earlier work
[10] = test system: contusive SCI; conditions: rats; 90 mg/kg i.p. or via jugular cannula, then two 45 mg/kg i.p. at 12-h intervals; cited from earlier work
[11] = test system: amyotrophic lateral sclerosis; conditions: human; cited from earlier work
[12] = long-term administration, global reports

## CN(C)c1ccc(O)c2c1C[C@H]1C[C@H]3[C@H](N(C)C)C(O)=C(C(N)=O)C(=O)[C@@]3(O)C(O)=C1C2=O [minocycline, (2E,4S,4aR,5aS,12aR)-2-(amino-hydroxy-methylidene)-4,7-bis(dimethylamino)-10,11,12a-trihydroxy-4-a,5,5a,6-tetrahydro-4H-tetracene-1,3,12-trione]
[1]; all subjects with data beyond 3 months (44), 3-12 month plateau, P=0.20
  ASIA motor recovery greater than placebo: 6 motor points
[1]; cervical SCI
  distribution of motor recovery difference vs placebo: lower extremity and new segment scores: majority of the difference
  distribution of motor recovery difference vs placebo: upper extremities, zone of partial preservation: Little difference
[1]; cervical SCI (n=25), 95% CI 0-28, P=0.05
  difference in ASIA motor score over placebo: 14 point
[1]; cervical SCI subgroups (FIG. 5)
  motor recovery, low-dose vs high-dose groups: greater difference with higher doses
[1]; cervical motor-complete (n=16), P=0.29
  difference in ASIA motor score over placebo: 10 points
[1]; cervical motor-incomplete (n=9), P=0.12
  difference in ASIA motor score over placebo: 22 points
[1]; cervical motor-incomplete, excluding one placebo subject with poor recovery (n=8), P=0.135
  difference in ASIA motor score over placebo: 13 points
[1]; thoracic SCI (n=17)
  ASIA motor recovery benefit vs placebo: did not show any benefit
[2]; human, in vivo
  eliminated unchanged through the kidneys: Eight to twelve
  elimination in biologically active form through the feces: 20-35 % of the initial dose
  metabolism to three inactive liver metabolites excreted in urine and feces: 50-60 % of the administered dose
[2]; oral 150 mg
  peak serum concentration: about 2 mg/L
[2]; oral 300 mg
  peak serum concentration: about 4 mg/L
[2]; oral or intravenous administration
  half-life: 16 h
[3]; humans
  serum concentrations well tolerated: up to 6.2 mg/L
[3]; [12]
  cases of drug induced lupus: 33 cases
  cases of hypersensitivity reaction: 19 cases
  cases of serum sickness-like reaction: 11 cases
  cases of single organ dysfunction: 40 cases
[4]
  inhibition of MMP activity: potent inhibitor
[5]
  IL-1β and NO metabolite production: reduced
  microglia proliferation: Inhibition
  neuronal cell survival: more than doubled
[6]
  recovery from SCI: facilitated significant recovery
[7]
  functional motor control in the hind limbs: improved
  size of lesions on spinal cords: reduced
[8]
  recovery in functional hind limb motor control: facilitated significant recovery
[9]
  hindlimb motor function: significantly increased
[10]
  behavioural or histological improvements or recovery from SCI: neither route for minocycline administration resulted in any behavioural or histological improvements
[11]
  clinical outcome in amyotrophic lateral sclerosis: clinical deterioration
